In US6602899B1, “β-D-5 thioxylose derivatives, preparation method and therapeutic use” (Fournier Industrie & Sante, priority 1999, dated 2003):

What was measured:
[1] = test system: venous thrombosis; test: venous thrombosis test (venous stasis under hypercoagulation, WESSLER technique, activated factor X); assay type: in vivo, Wistar male rats; settings: rat; for inhibition in vivo at 5 mg/kg: iv, i.v. in PEG 400, 5 mg/kg, thrombosis induced 2 h after administration, read-out: Activity i.v. T = 2 h (percentage inhibition relative to thrombus weight with vehicle); for Activity p.o. T = 4 h (percentage inhibition of thrombus weight): thrombosis induced 4 h after administration; for Activity p.o. T = 8 h (percentage inhibition of thrombus weight): thrombosis induced 8 h after administration
Protocol: The test products are administered either orally (tubage) dissolved or suspended in PEG 400, or by intravenous injection dissolved in PEG 400. The concentration of the compounds is calculated so that the amount of solution absorbed is 2 ml/kg by oral administration and 1 ml/kg by intravenous injection. The compounds are generally administered intravenously at a dose of 5 mg/kg. If the test is performed after oral administration, the amount administered is calculated so as to correspond to about 2.10^−5 mol/kg. Thrombosis is induced at a time T (2 h, 4 h or 8 hours) after the administration of the product, and the thrombus formed is removed and weighed. To induce this thrombosis, a venous stasis is created under hypercoagulation according to the technique described by WESSLER (J. Applied Physiol. 1959, pp. 943-946), the hypercoagulating agent used being a solution of activated factor X (Xa) having a concentration of 7.5 nKat/kg, supplied by Biogenic. The results obtained, expressed as the percentage inhibition calculated relative to the weight of a thrombus obtained in the absence of active principle in the vehicle, are collated in Table I below. The activity of the test compounds was checked at different doses after they had been administered either orally (p.o.) or intravenously (i.v.). The thrombosis was induced 4 hours or 8 hours after oral administration of the compound and 2 hours after intravenous administration.

[2] = test system: venous thrombus; settings: administered orally, doses of 6 mg/kg and above; cited from earlier work
[3] = solubility in injectable solvents; assay type: physicochemical; settings: especially water and PEG 400

SMILES | inhibition in vivo at 5 mg/kg [1] [%] | other results
Cc1cc(=O)oc2cc(O[C@@H]3SC[C@@H](OC(=O)OCC(C)C)[C@H](OC(=O)OCC(C)C)[C@H]3OC(=O)OCC(C)C)ccc12 [Ex. 5, 4-Methyl-2-oxo-2H-1-benzopyran-7-yl 2,3,4-tri-O-(2-methylpropoxycarbonyl)-5-thio-β-D-xylopyranoside] | 65 | –
CCCCOC(=O)O[C@@H]1[C@@H](OC(=O)OCCCC)[C@H](OC(=O)OCCCC)CS[C@H]1Oc1ccc2c(C)cc(=O)oc2c1 [Ex. 4, 4-Methyl-2-oxo-2H-1-benzopyran-7-yl 2,3,4-tri-O-butoxycarbonyl-5-thio-β-D-xylopyranoside] | 60 | –
Cc1cc(=O)oc2cc(O[C@@H]3SC[C@@H](OC(=O)OCCO)[C@H](OC(=O)OCCO)[C@H]3OC(=O)OCCO)ccc12 [Ex. 9, 4-Methyl-2-oxo-2H-1-benzopyran-7-yl 2,3,4-tri-O-(2-hydroxyethoxycarbonyl)-5-thio-β-D-xylopyranoside] | 27 | Activity p.o. T = 4 h (percentage inhibition of thrombus weight) ([1]; p.o. in PEG 400, 11 mg/kg): 93%; Activity p.o. T = 8 h (percentage inhibition of thrombus weight) ([1]; p.o. in PEG 400, 11 mg/kg): 29%
C=COC(=O)O[C@@H]1[C@@H](OC(=O)OC=C)[C@H](OC(=O)OC=C)CS[C@H]1Oc1ccc2c(C)cc(=O)oc2c1 [Ex. 8, 4-Methyl-2-oxo-2H-1-benzopyran-7-yl 2,3,4-tri-O-(ethenyloxycarbonyl)-5-thio-β-D-xylopyranoside] | 65 | –
CCOC(=O)O[C@@H]1[C@@H](OC(=O)OCC)[C@H](OC(=O)OCC)CS[C@H]1Oc1ccc2c(C)cc(=O)oc2c1 [Ex. 2, 4-Methyl-2-oxo-2H-1-benzopyran-7-yl 2,3,4-tri-O-ethoxycarbonyl-5-thio-β-D-xylopyranoside] | 73 | –
CCCOC(=O)O[C@@H]1[C@@H](OC(=O)OCCC)[C@H](OC(=O)OCCC)CS[C@H]1Oc1ccc2c(C)cc(=O)oc2c1 [Ex. 3, 4-Methyl-2-oxo-2H-1-benzopyran-7-yl 2,3,4-tri-O-propoxycarbonyl-5-thio-β-D-xylopyranoside] | 71 | –
Cc1cc(=O)oc2cc(O[C@@H]3SC[C@@H](O)[C@H](O)[C@H]3O)ccc12 [D, 4-methyl-2-oxo-2H-1-benzopyran-7-yl 5-thio-β-D-xylopyranoside, reference compound] | – | reduction of the formation of a venous thrombus [2]: more than 80%; solubility in injectable solvents [3]: insoluble; Activity p.o. T = 4 h (percentage inhibition of thrombus weight) ([1]; p.o. in PEG 400, 6 mg/kg): 84%; Activity p.o. T = 8 h (percentage inhibition of thrombus weight) ([1]; p.o. in PEG 400, 6 mg/kg): 15%
COC(=O)O[C@@H]1[C@@H](OC(=O)OC)[C@H](OC(=O)OC)CS[C@H]1Oc1ccc2c(C)cc(=O)oc2c1 [Ex. 1, 4-Methyl-2-oxo-2H-1-benzopyran-7-yl 2,3,4-tri-O-methoxycarbonyl-5-thio-β-D-xylopyranoside] | 84 | Activity p.o. T = 4 h (percentage inhibition of thrombus weight) ([1]; p.o. in PEG 400, 9 mg/kg): 87%; Activity p.o. T = 8 h (percentage inhibition of thrombus weight) ([1]; p.o. in PEG 400, 9 mg/kg): 66%
C=CCC(=O)O[C@@H]1[C@@H](OC(=O)CC=C)[C@H](OC(=O)CC=C)CS[C@H]1Oc1ccc2c(C)cc(=O)oc2c1 [Ex. 7, 4-Methyl-2-oxo-2H-1-benzopyran-7-yl 2,3,4-tri-O-(2-propenylcarbonyl)-5-thio-β-D-xylopyranoside] | 66 | –
COCCOC(=O)O[C@@H]1[C@@H](OC(=O)OCCOC)[C@H](OC(=O)OCCOC)CS[C@H]1Oc1ccc2c(C)cc(=O)oc2c1 [Ex. 6, 4-Methyl-2-oxo-2H-1-benzopyran-7-yl 2,3,4-tri-O-(2-methoxyethoxycarbonyl)-5-thio-β-D-xylopyranoside] | 52 | –
